For 2 molecules, inhibition results are on record in patent US4871756A, “Leukotriene antagonists” (Merck Frosst Canada, Inc., priority 1987, dated 1989).

For the test, the system named is Leukotriene D4 (ileum contraction induced by LTD4). As to the kind of experiment: Guinea Pig Ileum Assay for Evaluation of Antagonists of Leukotriene D4 (Inhibition of Ileum Contraction Induced by LTD4). Format: cell-based, guinea pig (male Hartley strain). The settings on record: Cavia porcellus, LTD4 0.3 ng/ml, 30 second pretreatment; for inhibition at 10 µg/mL: 10 μg/ml. On the procedure:
The terminal ileum from male Hartley strain guinea pigs (300-500 g) was removed and suspended under 1 g resting tension in Tyrode's solution containing 1.0×10^-6 M atropine sulfate and 1.6×10^-6 M timolol (beta blocker). After a 15-30 minute stabilization period, a standard dose of leukotriene D4 (0.3 ng/ml--final bath concentration)was added repeatedly until consistent and reproducible contractile responses were obtained. Isometric contractions to leukotriene D4 were recorded for 60 seconds and then the tissue was washed and allowed to recove to baseline (2 minutes) before the next dose of leukotriene D4 was added. For testing antagonist compounds, a 30 second pretreatment period was used and the percent inhibition of the control contraction to leukotriene D4 was recorded. A similar procedure was employed for testing active compounds against contractions to a standard dose of histamine (50 ng/ml--final bath concentration).

SMILES strings stand for the structures.

Regarding `CCCc1c(OCC2(O)CCCCC2Sc2ccc(C(=O)CCC(=O)O)cc2)ccc(C(C)=O)c1O` [L-649,106], the inhibition at 10 µg/mL was found to be 80%. The inhibition at 1 µg/mL (1 μg/ml) is 23%. For `CCCc1c(OCC2(Sc3ccc(C(=O)CCC(=O)O)cc3)CCCCC2O)ccc(C(C)=O)c1O` [L-649,107], the inhibition at 10 µg/mL turned out to be 12%.

What is called inhibition is the change of the read-out against control, counted positive when it falls.
